Source: PubChem BioAssay (NCI)
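Method: 48-hour compound exposure of cells in 96-well plates, five concentrations, linear interpolation of endpoints. TGI is the concentration that stops growth completely.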

Tests used:
Experiment in all cases: NCI anticancer screen, dose series, 48 h
NCI-H23 lung = tested on: NCI-H23 lung
SNB-19 CNS = tested on: SNB-19 CNS
T-47D breast = tested on: T-47D breast
SF-295 CNS = tested on: SF-295 CNS
HL-60(TB) leukemia = tested on: HL-60(TB) leukemia
HCC-2998 colon = tested on: HCC-2998 colon
K-562 leukemia = tested on: K-562 leukemia
SK-MEL-2 melanoma = tested on: SK-MEL-2 melanoma
SK-MEL-5 melanoma = tested on: SK-MEL-5 melanoma
CCRF-CEM leukemia = tested on: CCRF-CEM leukemia

Row | SMILES | TGI (NCI-H23 lung) [µM] | TGI (SNB-19 CNS) [µM] | TGI (T-47D breast) [µM] | TGI (SF-295 CNS) [µM] | TGI (HL-60(TB) leukemia) [µM] | TGI (HCC-2998 colon) [µM] | TGI (K-562 leukemia) [µM] | TGI (SK-MEL-2 melanoma) [µM] | TGI (SK-MEL-5 melanoma) [µM] | TGI (CCRF-CEM leukemia) [µM]
1 | COC(=O)C(Cc1ccccc1)NP(=O)(O)OCC1OC(n2cc(F)c(=O)[nH]c2=O)CC1O (centres undefined) | > 100 | > 100 | > 100 | > 100 | > 100 | > 100 | > 100 | > 100 | > 100 | 
2 | COc1c(O)cc(O)c2c(=O)cc(-c3ccccc3)oc12 | > 100 | > 100 |  | > 100 | 57.3 | > 100 | > 100 | > 100 | > 100 | > 100
3 | CC1(O)CC(=O)c2c(cc3ccc(-c4c5c(c(O)c6c(O)cccc46)C(=O)CC(C)(O)C5)c(O)c3c2O)C1 (centres undefined) | 1.35 | 4.37 |  | 0.874 | 0.772 | 1.07 | 11.9 | 0.897 | 0.495 | 10.5
4 | O=C(O)c1ccn(-c2cccc(-n3ccc(C(=O)O)n3)n2)n1 | > 100 | > 100 |  | > 100 | > 100 |  | > 100 | > 100 | > 100 | > 100
5 | COc1cc(C(C)c2cc3c(cc2OCCO)OCO3)cc(OC)c1OC (centres undefined) |  | > 100 |  | 2.24 | 2.02 | > 100 | > 100 | > 100 | > 100 | > 100
6 | CCOc1cc(C2CC(c3ccc(NS(=O)(=O)c4cc([N+](=O)[O-])ccc4C)cc3)=NN2c2ccc([N+](=O)[O-])cc2[N+](=O)[O-])ccc1O (centres undefined) | 42.9 | 34.5 | 60.2 | 41.1 | > 100 |  | > 100 | 44.3 | 23.1 | > 100
7 | C[C@H]1C[C@H]2[C@@H]3C(C)(C)O[C@]4(O)C(=O)[C@]5(O)[C@@H](C)CC[C@H]1[C@]25C(=O)[C@]34C | > 100 | > 100 | 70.9 | 77.5 | 59.2 |  | > 100 | 84.3 | 81.7 | > 100
8 | CC1(C)CC(=O)c2c(nc3ccc4ccccc4c3c2-c2ccc(NC(=O)CCCCCCCCC(=O)Nc3ccc(-c4c5c(nc6ccc7ccccc7c46)CC(C)(C)CC5=O)cc3)cc2)C1 | > 100 | > 100 | > 100 | > 100 | > 100 |  | > 100 | > 100 | > 100 | > 100
9 | COc1cc2cc[n+]3c(C)c4cc(OC)c(OC)cc4c([O-])c3c2cc1OC | > 100 | > 100 |  | > 100 | 48.8 | > 100 | > 100 | > 100 | > 100 | > 100
10 | Cc1nc2c(sc(=S)n2-c2ccccc2)c(=O)[nH]1 | > 100 | > 100 |  | > 100 | > 100 | > 100 | > 100 | > 100 | > 100 | > 100
11 | CCOC(=O)c1cc2c3c(c(C(C)=O)c(O)c2[nH]1)N(CC(C)CC)CC3 (centres undefined) | > 100 | > 100 | 92.6 | > 100 | > 100 |  | > 100 | > 100 |  | > 100
12 | COc1cc(/C=C2/C[C@H]3[C@@H]4CC=C5C[C@@H](OC(C)=O)CC[C@]5(C)[C@H]4CC[C@]3(C)NC2=O)cc(OC)c1OC | 67 | 41.9 | 72.8 | 65.9 |  | > 100 | > 100 | 52.4 | > 100 | > 100
13 | CCCCCC(C)SC1(C(=O)OC)CC(OC(C)=O)C(NC(C)=O)C([C@H](OC(C)=O)[C@@H](COC(C)=O)OC(C)=O)O1 (some centres undefined) | > 100 | > 100 | > 100 | > 100 | > 100 | > 100 | > 100 | 64.4 | > 100 | 
14 | COc1ccc(C(=O)Cc2ccc(Br)cc2)cc1OC | > 100 | > 100 |  | > 100 | > 100 | > 100 | > 100 | > 100 | > 100 | > 100
15 | CCN(C(=S)N[C@H](C(=O)N[C@@H](C)C(=O)OC)C(C)C)c1ccccc1 | > 100 | > 100 | > 100 | > 100 |  | > 100 | 80.2 | > 100 | > 100 | > 100
16 | C#CCSC(C=C=C)P(=O)(OC(C)C)OC(C)C (centres undefined) | > 100 | > 100 | > 100 | > 100 | > 100 | 75.1 | 68.4 | > 100 | > 100 | 
17 | COc1ccccc1Cc1nc(-c2ccccc2)nn(C2OC(COC(C)=O)C(OC(C)=O)C(OC(C)=O)C2OC(C)=O)c1=S (centres undefined) | 42.6 | > 52.7 |  | > 69.4 | > 100 | > 43.2 | > 100 | 41.3 | 26.1 | > 100
18 | CC1(c2ccc[n+](Cc3ccccc3)c2)OCCO1 | > 100 | > 100 |  | > 100 | > 100 | > 100 | > 100 | > 100 | > 100 | > 100
19 | COc1ccc(-c2cc(-c3cc4cc(Br)ccc4nc3Cl)c(C#N)c(N)n2)cc1 | > 12.5 | > 12.5 | > 12.5 | > 12.5 | > 12.5 |  | > 12.5 | > 12.5 | > 12.5 | > 12.5
20 | CC(=O)c1c(C(F)(F)F)n([O-])c2cc(Cl)c(Cl)cc2[n+]1=O | 2.71 | 2.27 | 2.96 | 2.27 | 1.43 |  | 3.42 | 2.72 | 2.06 | 0.563
21 | CC1CC/C(=C\c2ccc(Cl)cc2)C2OC(N)=C(C#N)C(c3ccc(Cl)cc3)=C12 (centres undefined) | 29.4 | 39.6 | 17.8 |  | 27.4 |  | 51.8 | 27.2 | 32.1 | 31.2
22 | O=c1c2cc(I)ccc2nc(-c2cccs2)n1-c1ccc(O)cc1 | 36.7 | 38.8 | 10.7 | 27.4 | 36.7 | 30.6 | > 100 | 29.9 | 24.3 | 
